Measurements: patent US10888544B2, “Methods for treating Gaucher disease” (Genzyme Corporation, priority 2017, dated 2021)

Assay: Safety evaluation in the hepatic impairment single dose study (Example 1)
Type: in vivo, human
Method: The safety evaluation was based upon the review of the individual values (clinically significant abnormalities) and descriptive statistics (summary tables). All safety analyses were performed using the safety population and were based on the on-treatment phase (defined as the time from investigational medicinal product [IMP] administration up to Day 3 visit, inclusive). For laboratory, vital signs, and ECG data, potentially clinically significant abnormalities (PCSAs) were analyzed using the 24 May 2014 version of the PCSA list. Electrocardiogram parameters were obtained from automatic reading of 12-lead ECGs and were analyzed as raw parameter values and change from baseline. For vital signs, raw data and changes from baseline were summarized using descriptive statistics by population group and time point. All individual data for biochemistry, hematology, and qualitative urinary tests were listed.
Adverse events were coded according to the Medical Dictionary for Regulatory Activities (MedDRA v.19.1) and classified into predefined standard categories according to chronological criteria: • Pretreatment adverse events (AEs), defined as AEs that occurred, worsened (according to Investigator opinion), or became serious during the pretreatment phase (defined as the time between the signature of the informed consent and IMP administration [excluded]); • Treatment-emergent AEs (TEAEs), defined as AEs that occurred, worsened, or became serious during the on-treatment phase; • Posttreatment AEs, defined as AEs that occurred, worsened, or became serious during the posttreatment phase (defined as the time after Day 3 visit through completion of EOS).
All AEs reported in the study were listed and sorted by subject, onset date and time. The number and percentage of subjects with TEAEs were listed by population group, primary system-organ class (SOC), preferred term (PT), and AE diagnosis.

[1] = hepatic impairment study, single dose

In the case of CCCCCCCC(=O)N[C@H](CN1CCCC1)[C@H](O)c1ccc2c(c1)OCCO2 [eliglustat, N-((1R,2R)-1-(2,3-dihydrobenzo[b][1,4]dioxin-6-yl)-1-hydroxy-3-(pyrrolidin-1-yl)propan-2-yl)octanamide], the “Total number of mild TEAEs observed” value (all groups (healthy, mild HI, moderate HI), in 5 subjects, single dose) is reported as 6, the “Deaths or other significant AEs” value [1] is reported as “no deaths or other significant AEs” and the Serious adverse events [1] is reported as “No serious adverse events were reported”. The “Treatment emergent PCSA (laboratory values, vital signs, ECGs)” value [1] was “no treatment emergent PCSA that were clinically relevant” and the “TEAEs considered related to study drug by the investigator” value (in 3 subjects: dysgeusia in 2 moderate HI subjects, nausea and headache in 1 healthy subject) was “Four”.
